Measured values as given in article PMC12392461, “Beyond Estrogenicity: A Comparative Assessment of Bisphenol A and Its Alternatives in In Vitro Assays Questions Safety of Replacements” (Environmental Science & Technology, 2025).
Read-outs that look alike come from different tables or passages of the source.

Experiments:
[1] = test system: HEK293H, HEK293T, H4IIe, MCF7 and SH-SY5Y cells; details: for cytotoxicity,median REPBPA,IC10: median IC10 relative to BPA; for IC10,Median (M): median cytotoxicity of all cell lines; for IC10, median: median cytotoxicity over all cell lines
Procedure: Cell culture conditions and bioassay protocols including response detection are provided in Text S2.1–2.4 and Table S3. − Cell viability was determined from cell confluency using an IncuCyte S3 Live-Cell Analysis System (Sartorius AG, Essen, Germany) before and after exposure, except for SH-SY5Y cells (live–dead staining with Nuclear Green LcS1 and propidium iodide, Abcam, UK). For metabolic activation experiments, cell viability was assessed using the ToxBLAzer DualScreen Kit (Thermo Fisher Scientific) to capture the remaining toxicity in ERα-UAS-bla GripTite after treatment with the aCYP catalyst (details in Text S2.4).
For ARE, the concentration that triggered an induction ratio of 1.5 (ECIR1.5) was used as the benchmark value, as detailed in Text S2.5. IC10 values also served as a threshold for data analysis in all assays; only concentrations below IC10 were considered when deriving EC10 or ECIR1.5.
TR indicates whether the cytotoxicity is triggered by specific toxicity mechanisms (TR ≥ 10) or not (0.1< TR< 10). 3 TR=IC10,baseline/IC10 We measured the cytotoxicity of BPA and its alternatives in HEK293H (PPARγ), HEK293T (ERα), H4IIe (AhR CALUX), MCF7 (ARE/MMP), and differentiated SH-SY5Y cells (Table S6). […]
medium, supplemented with 2% B-27 Supplement and 2 mM GlutaMAX Supplement. SH - SY5Y cells were differentiated with 10 µM all-trans retinoic acid prior to the assay.
S2.2: Cell Seeding and Incubation. For all bioassays, cell suspensions in the respective assay medium were dispensed into each well of 384-well plates using a MultiFlo Dispenser (Biotek, (now Agilent), Winooski, VT, U.S.). After seeding, the plates were incubated at 37° C and 5% CO₂ for […]. The final cell densities and plate types were as follows: Black poly-D-lysine […]
6500 cells/well, ERα: 5000 cells/well. White 384-well plates with a clear bottom (Product No.
NYC, U.S.) for AhR: 3250 cells/well. Black Collagen I coated plates were used (Product No.
S2.3: Chemical Dosing and Assay Analysis Procedures. The dosing procedure and high-throughput assay workflow have been described in detail before. 9 The dosing concentrations […]
Stock solutions were then either added directly to the respective cell culture medium or evaporated under nitrogen, followed by replenishment with fresh medium. The final solvent content in each well was kept below 1% for methanol, 0% for acetonitrile.
Dosing plates were prepared as 11 -step serial dilutions using a Hamilton Microlab Star robotic system (Hamilton, Bonaduz, Switzerland), and chemicals were dosed in duplicates by transferring 10 μL twice from the dosing plates to the cell plates . After quantifying cell confluency as described in S2. 4., the exposed cells were incubated at 37° C and 5% CO₂ for an additional 24 h. All chemicals were tested in all assays with at least three independent […]
S2.4: Cell Viability Measurement s and bioanalytical protocols . The confluency as a measure of cell viability was determined with an IncuCyte S3 Live -Cell Analysis System (Sartorius AG, Essen, Germany). With this method the confluency of cells in a microscopy image are normalized to control wells without cells and compared before and after 24 hours of exposure.
This method has been described previously 13. Cell viability of SH-SY5Y cells was measured […]
propidium iodide (PI, Abcam, Cambridge, U.K.).14 Nuclear Green LCS1 is a membrane-permeable dye that stains the nuclei of all cells, whereas PI only enters cells with compromised membrane integrity (non-viable cells). After staining, live cells show green nuclei without red fluorescence, while dead cells display both green and red nuclear fluorescence due to PI […]
intercalation. Cell viability was calculated as the proportion of green-only nuclei relative to the […]
For experiments with the preceding aCYP activation, ERα cell viability was additionally calculated from the readout of the ToxBLAzer reagent. The ToxBLAzer assay was conducted following the manufacturer's instructions (Thermo Fisher, Waltham, MA, U.S.).13 Fluorescence

[2] = Octanol-water partition constant (log Kow) measurement, Sirius T3 potentiometric log P; format: physicochemical; details: experimental, this study
Procedure: Physicochemical properties provide input parameters for the baseline toxicity model. Acidity constants (pK a) and octanol–water partition constants of the neutral species (K ow) were measured with a Sirius T instrument from Pion Inc. (Sussex, UK) (Text S1.2 and Table S1). A detailed description of the pK a and K ow measurements can be found in literature. , […]
S1.2: pKa and log Kow measurements […]
titrator (Pion Inc., Sussex, U.K.). […]
UV absorbance. For log Kow measurement, approximately 1 mg of test chemical was added to a sample vial and the measurement was done automatically via the potentiometric log P protocol. Briefly, each compound is titrated thrice in an immiscible biphasic system of octanol and phosphate buffer solution and pH is continuously recorded. The shift in p Ka -values was used to estimate the log Kow values.2, 3 Data processing was performed with Sirius T3 Refine software (version 2.0.0.0.), and the final p Ka and log Kow values were calculated as the average of three titrations. To ensure reproducibility, measurements were conducted on at least two

[3] = 15 min
Procedure: (§1) The mixtures were adjusted to a final volume of 100 μL with acetonitrile (ACN). The reaction mix was incubated for 15 min at 30 °C and 1000 rpm on a Bioshake iQ orbital shaker from QInstruments (Jena, Germany). Additionally, a mixture without test compounds was prepared as a control. Subsequently, 10 μL of the reaction mixture was transferred into a conical dosing vial and evaporated under a nitrogen flow.
(§2) For chemical analysis, 10 μL of the reaction mixture was concentrated under vacuum (CentriVap, Labconco, Kansas City, MO, USA), diluted to 1 mg/L in ACN or ethyl acetate. The chemical analysis of the reaction mixtures was performed using liquid chromatography (LC) and gas chromatography (GC) coupled with various detection techniques, preferably Multiple Reaction Monitoring (MRM). Data acquisition and processing were carried out using the software MassHunter. Quantification was based on external calibrations.
(§3) The Cparent-Ratio quantifies the extent of oxidation of the parent compound after the abiotic CYP reaction. It was calculated as the ratio of the parent compound concentration after oxidation (C parent, after oxidation) to its concentration before oxidation (C parent, before oxidation) as shown in eq . […] 8 Cparent‐Ratio=Cparent,after oxidation/Cparent,before oxidation

Tox21 assays [4] = details: cited from earlier work
ERα = details: cited from earlier work
Tox21 assays [5] = test: Re-evaluated Tox21 data (Adamovsky et al.), REPBPA and SRbaseline; details: for SRbaseline: Specificity Ratio;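 on all read-outs here: published Tox21 results reanalysed with a revised model predicting baseline toxicity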
From the text: We also reanalyzed the Tox21 data of Adamovsky et al. with the updated baseline toxicity prediction model (Table S2).

PPARγ = test system: PPARγ; design: method as in Crosthwait et al. 2025; Sun et al. 2025; details: ref Crosthwait et al. 2025; Sun et al. 2025; cited from earlier work
[6] = Abiotic CYP (aCYP) oxidation, remaining parent compound (Cparent-Ratio); details: for Cparent-Ratio Rep.1 %: Table S9, replicate 1; for Cparent-Ratio Rep.2 %: Table S9, replicate 2
Procedure: as §1, §2, §3

[7] = TOX21_CAR_Antagonist, re-evaluated Tox21 data, ref Adamovsky et al 2024
[8] = TOX21_PPARg_BLA_antagonist_ratio, re-evaluated Tox21 data, ref Adamovsky et al 2024
[9] = Tox21BLA, ref Adamovsky et al. 2024
[10] = Tox21Luc, ref Adamovsky et al. 2024
[11] = TOX21_AR_LUC_MDAKB2_Antagonist_0,5nM_R1881, Relative Effect Potency
[12] = TOX21_AR_LUC_MDAKB2_Antagonist_0,5nM_R1881
[13] = TOX21_PPARg_BLA_antagonist_ratio
[14] = estrogen receptor from Atlantic cod (Gadus morhua), ref Goksøyr et al 2024
[15] = Table S9, loss of parent after aCYP oxidation
[16] = Table S9, mean of two replicate experiments
[17] = Table S9, replicate 1, as fraction
[18] = Table S9, replicate 2, as fraction
[19] = Table S11, measured simultaneously with bioassay

Row | SMILES | cytotoxicity,median REPBPA,IC10 [1] | IC10,Median (M) [1] | IC10, median [1] | log Kow used [2] | EC50 (ERα; ref Kojima et al 2019) | Efficacy % (ERα; ref Pelch et al 2019) | Efficacy % (ERα; ref Reiniger et Oehlmann 2024) | EC10 (Tox21 assays [4]; [8]) | EC10 (Tox21 assays [4]; [10]) | SRbaseline (Tox21 assays [5]; [13]) | REPBPA (Tox21 assays [5]; [10]) | % Loss [6, 15] | other results
1 | CC(c1ccccc1)(c1ccc(O)cc1)c1ccc(O)cc1 [BPAP, 4,4'-(1-Phenylethylidene)bisphenol] | 2.12 | 3.31 × 10^–5 M | 33.1 µM | 5.06 | 1.9 µM | 45.40% | 1.06E+02% | – | – | – | – | – | reduction of C parent after aCYP oxidation [3]: 25%; EC10 (Tox21 assays [4]; [7]): 1.11e-06 M; EC50 (ERα; ref Reiniger et Oehlmann 2024): 0.932 µM; REPBPA (Tox21 assays [5]; ATG_NRF2_ARE_CIS_up, Relative Effect Potency): 3.88; SRbaseline (Tox21 assays [5]; ATG_NRF2_ARE_CIS_up): 15.59; SRbaseline (Tox21 assays [5]; TOX21_CAR_Antagonist): 27.45
2 | CC(c1ccc(O)cc1)c1ccc(O)cc1 [BPE, 4,4′-Ethylidenbisphenol] | 0.88 | 7.91 × 10^–5 M | 79.1 µM | 4.05 | – | – | – | 1.02e-05 M | 3.57E-08 | 12.24 | 6.37E-01 | – | % Loss [3]: 21%; EC10 (Tox21 assays [4]; TOX21_AR_LUC_MDAKB2_Antagonist_0,5nM_R1881, re-evaluated Tox21 data, ref Adamovsky et al 2024): 1.63e-06 M; EC10 (Tox21 assays [4]; TOX21_CAR_Agonist, re-evaluated Tox21 data, ref Adamovsky et al 2024): 1.04e-05 M; EC10 (Tox21 assays [4]; [9]): 1.36E-06; REPBPA (Tox21 assays [5]; [11]): 1.49; SRbaseline (Tox21 assays [5]; [12]): 76.62; REPBPA (Tox21 assays [5]; TOX21_CAR_Agonist, Relative Effect Potency): 0.13; SRbaseline (Tox21 assays [5]; TOX21_CAR_Agonist): 11.95; REPBPA (Tox21 assays [5]; [9]): 4.35E-01
3 | Oc1ccc(Cc2ccc(O)cc2)cc1 [BPF, Bis(4-hydroxyphenyl)methane] | 0.17 | 4.09 × 10^–4 M | 409 µM | 2.71 | 0.32 µM | 63.10% | 1.05E+02% | 9.55e-06 M | 8.91E-08 | 17.20 | 4.84E-01 | – | reduction of C parent after aCYP oxidation [3]: 48%; EC10 (Tox21 assays [4]; ATG_PPARg_TRANS_up, re-evaluated Tox21 data, ref Adamovsky et al 2024): 3.95e-06 M; EC50 (ERα; [14]): 3.8 µM; EC50 (ERα; ref Pelch et al 2019): 1.6 µM; EC50 (ERα; ref Reiniger et Oehlmann 2024): 2.54 µM; REPBPA (Tox21 assays [5]; ATG_PPARg_TRANS_up, Relative Effect Potency): 0.40; SRbaseline (Tox21 assays [5]; ATG_PPARg_TRANS_up): 41.61
4 | O=S(=O)(c1ccc(O)cc1)c1ccc(O)cc1 [BPS, 4,4'-Sulfonyldiphenol] | – | 5.61 × 10^–4 M | 561 µM | 1.97 | 5.4 µM | 61.60% | 7.90E+00% | – | – | – | 1.68E-02 | – | % Loss [3]: -2%; EC50 (ERα; [14]): 83.3 µM; EC50 (ERα; ref Pelch et al 2019): 1.3 µM; REPBPA,ERα reported in the literature (ERα; ref Text S5.4, Tables S2 and S7): 0.02–1; SRbaseline (Tox21 assays [5]; ATG_PPARg_TRANS_up): 2973; REPBPA (Tox21 assays [5]; ATG_chAR_XSP2_up, Relative Effect Potency): 1.00; SRbaseline (Tox21 assays [5]; ATG_chAR_XSP2_up): 645.8; SRbaseline (Tox21 assays [5]; ATG_hPPARg_XSP2_up): 3669; REPBPA (Tox21 assays [5]; [11]): 0.0653; SRbaseline (Tox21 assays [5]; [12]): 127.8; REPBPA (Tox21 assays [5]; [9]): 1.59E-01
5 | C=CCOc1ccc(S(=O)(=O)c2ccc(O)cc2)cc1 [BPS-MAE, 4-[[4-(Allyloxy)phenyl]sulfonyl]phenol] | 0.37 | 1.90 × 10^–4 M | 190 µM | – | – | 10.30% | – | – | – | – | – | 1.47% | PPARγ transactivation reported in the literature (PPARγ): weaker effects
6 | Oc1ccc(C2(c3ccc(O)cc3)CCCCC2)cc1 [BPZ, 1,1'-Bis(4-hydroxyphenyl)cyclohexane] | 1.33 | 5.28 × 10^–5 M | 52.8 µM | 4.64 | – | – | – | 1.84e-06 M | 2.65E-08 | 14.87 | 2.90E+00 | 12% | EC10 (Tox21 assays [4]; [7]): 4.58e-07 M; REPBPA (Tox21 assays [5]; TOX21_CAR_Antagonist, Relative Effect Potency): 1.19; SRbaseline (Tox21 assays [5]; TOX21_CAR_Antagonist): 59.87
7 | Cc1ccc(S(=O)(=O)NC(=O)Nc2ccc(Cc3ccc(NC(=O)NS(=O)(=O)c4ccc(C)cc4)cc3)cc2)cc1 [BTUM, 4,4'-Bis(p-tolylsulfonylureido)diphenylmethane] | 2.26 | 3.10 × 10^–5 M | 31 µM | – | – | – | – | – | – | – | – | 70% | PPARγ transactivation reported in the literature (PPARγ): weaker effects; reduction of C parent after aCYP oxidation ([6]; 15 min, 30 °C): 70%; Cparent-Ratio Mean [6, 16]: 0.30; Cparent-Ratio Rep.1 % [6]: 26.78%; Cparent-Ratio Rep.1 [6, 17]: 0.27; Cparent-Ratio Rep.2 % [6]: 33.79%; Cparent-Ratio Rep.2 [6, 18]: 0.34; % Loss ([6]; Table S11): 79%; Cparent-Ratio Mean [6, 19]: 0.21; Cparent-Ratio Rep.1 [6, 19]: 0.23; Cparent-Ratio Rep.2 [6, 19]: 0.18
8 | O=C(OCc1ccccc1)c1ccc(O)cc1 [BzPB, Benzyl 4-hydroxybenzoate] | 0.53 | 1.32 × 10^–4 M | 132 µM | 3.30 | – | 19.70% | – | – | – | – | – | -22% | Cparent-Ratio Mean [6, 16]: 1.22; Cparent-Ratio Rep.1 % [6]: 115.59%; Cparent-Ratio Rep.1 [6, 17]: 1.16; Cparent-Ratio Rep.2 % [6]: 128.10%; Cparent-Ratio Rep.2 [6, 18]: 1.28
